Test results as given in patent publication EP0357061B1, “Angiogenesis inhibitory agent” (priority 1988, dated 1990).
Converted amounts (≈) assume the structure as drawn. Where two headings read alike, the source gives them in different places. Marks after values point to notes of the source that are not given here.

Tests used:
B16 Mouse Melanoma = format: in vivo
Description: Using the B16 Mouse Melanoma model described in Folkman et al., Science, 221:719-725 (1983), the angiogenesis inhibitory activity of AGM-1470 was further evaluated. Treatment (Rx) usually started when tumors were approximately 70-100 mm³, approximately 9 to 10 days after inoculation. Tumors were matched for size before inclusion in treated and untreated groups. AGM-1470 was dissolved in isotonic solution by incubating with glass beads and vigorously shaking overnight at 4°C. This preparation was administered subcutaneously at 30 mg/kg every other day.
Tumor growth is presented as a T/C ratio, as defined below. In essence, a ratio equal to "+ 1" means no inhibition, a ratio equal to "0" means complete suppression of growth, and a negative ratio indicates tumor regression. [formula]

[1] = system: Chick Chorioallantoic Membranes; test: shell-less chorioallantoic membrane (CAM) assay; format: in vivo; conditions: after 48 - 72 hours
Description: The shell-less chorioallantoic membrane (CAM) assay was carried out by the method of Folkman et al. (R.Crum. S.Szabo and J.Folkman; Science. 230. 1375 (1985)) as follows: three-day chick embryos were removed from their shells to petri dishes (Falcon 1005) under sterile hood and cultured for further 3 days.
AGM-1470 was dissolved to a 0.45% methylcellulose aqueous solution and aliquots of 10 »l were pipetted onto Teflon rods. After the solution had dried, the methylcellulose disks (about 2 mm in diameter) containing the compound were implanted on the CAM of 6-day embryos.
An avascular zone represents a region in which regression of pre-existing vessels has occured.
Percent of avascular zones was calculated by counting the disks forming avascular zones per the total disks tested. In each group there were 12 to 16 embryos.

[2] = system: Human umbilical vein endothelial cells (HUVE); test: Inhibition of human endothelial cell growth (MTT); format: cell-based; conditions: rbFGF 2 ng/ml, 5 day culture; for IC50: Homo sapiens, Endothelial cell, 120 h, read-out: (IC₅₀)
Description: Human umbilical vein endothelial cells (HUVE) were isolated by perfusion of an umbilical vein with a trypsin-containing medium. HUVE were cultured in GIT medium (Diago Eiyou Kagaku, Co., Japan) supplemented with 2.5% fetal bovine serum and 2.0 ng/ml of recombinant human basic fibroblast growth factor (rbFGF, Biotechnology Research Laboratories, Takeda, Osaka, Japan) at 37°C under 5% CO₂ and 7% O₂. HUVE were plated on 96-well microtiter plates (Nunc, 1-67008) at the cell density of 2 x 10³/100 »l of medium. The following day, 100 »l of medium containing rbFGF (2 ng/ml at the final concentration) and each compound (I) (shown by Example Numbers) at various concentrations were added to each well. […] After 5 day culture, medium was removed, 100 »l of 1 mg/ml of MTT (3-(4,5-dimethyl-2-thiazolyl)- 2,5-diphenyl-2H-tetrazolium bromide) solution was added to wells, and microtiters were kept at 37°C for 4 hours. Then, 100 »l of 10% sodium dodecyl sulfate (SDS) solution was added to wells, microtiters were kept at 37° for 5-6 hours. To determine the effects on cell number, the optical density ([…]) of each well was measured using an optical densitometer. […]

[3] = system: bFGF-induced angiogenesis; test: rat cornea micropocket method (angiogenesis inhibitory activity); format: in vivo, Sprague-Dawley rats; conditions: rats with angiogenesis inhibitory activity / rats tested, sample pellet 20 »g
Description: The product compound (I) obtained in the examples given below were evaluated for angiogenesis inhibitory activity by the rat cornea micropocket method.
Essentially the method of Gimbrone et al. [J. National Cancer Institute, 52, 413-419 (1974)] was followed. Thus, adult male Sprague-Dawley rats (11 to 16 weeks of age) were anesthetized with nembutal and locally anesthetized by instillation of xylocaine eyedrops onto the eyeball. The cornea was incised to a length of about 2 mm at about 2mm inside from the corneal circumference by means of an injection needle, and a sustained release pellet containing basic fibroblast growth factor (bFGF; bovine brain-derived, purified product; R & D) and a sustained release pellet containing the test sample were inserted side by side into the incision so that the bFGF pellet was located on the central side in the cornea. In the control group, the bFGF pellet and a sample-free pellet were inserted into the cornea. After 7 days and after 10 days, the cornea was observed under a stereoscopic microscope.
The sustained release pellets were prepared in the following manner. An ethylene-vinyl acetate copolymer (Takeda Chemical Industries) was dissolved in dichloromethane to a concentration of 8%. A 3-»l portion of the solution was air-dried on a glass dish, an aqueous solution of bFGF (250 ng) was then placed thereon and air-dried and, finally 3 »l of the above ethylene-vinyl acetate copolymer solution was placed further thereon and air-dried to give a laminate consisting of two copolymer layers and a bFGF layer sandwiched therebetween. This sandwich sheet was made round into a bFGF pellet. The test sample pellets were prepared by dissolving each sample in ethanol in a concentration of 20 »g/2 »l, mixing the solution (2 »l) with 6 »l of an ethylene-vinyl acetate copolymer solution, air-drying the mixed solution on a glass dish and making the thus-obtained sheet round.

[4] = system: Bovine capillary endothelial cells; test: Boyden chamber assay, capillary endothelial cell migration; format: cell-based; conditions: endothelial mitogen 200 »g/ml, 4 hours
Description: The Boyden chamber assay was carried out using a modification of the method of Falk et al., J. Immunol. Meth., 33:239-247 (1980) as follows: Bovine capillary endothelial cells were plated at 1.5 x 10⁴ cells per well in serum-free DMEM (Dulbecco's Modified Eagle's Medium) on one side of nucleopore filters pre-coated with fibronectin (7.3 »g fibronectin/ml PBS). […] Cells were exposed to endothelial mitogen (Biomedical Technologies, Massachusetts) at 200 »g/ml and different concentrations of the AGM-1470 in serum-free DMEM for 4 hours at 37°C. At the end of this incubation, the number of cells that migrated through 8» pores in the filters was determined by counting cells with an ocular grid at 100 X in quadruplicate.

[5] = system: mouse reticulum cell sarcoma (M 5076); test: Suppression of tumor formation in vivo (M 5076); parameters: species or system C57BL/6N mice; conditions: 30 mg/day subcutaneously, 10 injections over 12 days; tumor volume one day after the final injection
Description: The tumor used in this assay was mouse reticulum cell sarcoma (M 5076), maintained by intraperitoneal transplantation into male C57BL/6N mice. The tumor cells in ascites were collected by centrifugation, and suspended in saline. The cell suspension (2 x 10⁶ cells/100 »l/mouse) was inoculated into right flanks of mice. Tumor-bearing mice were subcutaneously treated with the compound (I) (shown by Example Numbers) suspended in 5% arabic gum solution containing 1% of ethanol, for 12 days beginning one day after tumor inoculation (10 injections). The tumor growth was determined by measuring tumor size in two directions with calipers at intervals of a few days. The tumor volumes were calculated by the following formula. Tumor volume (mm³) = length x (width)² […]. [formula]

How did the “treated remained alive past day 55” value (B16 Mouse Melanoma; 30 mg/kg subcutaneously every other day) turn out when `CO[C@@H]1[C@H](OC(=O)NC(=O)CCl)CC[C@]2(CO2)[C@H]1[C@@]1(C)O[C@@H]1CC=C(C)C` [Example 8, O-Chloroacetylcarbamoylfumagillol] was run?
Its value is “Day 37 100% untreated dead 50% AGM-1470 treated dead (50% of treated remained alive past day 55)”.

What about the AGM-1470 treated dead (B16 Mouse Melanoma; Day 37 (100% untreated dead), 30 mg/kg subcutaneously every other day) of the same compound?
The AGM-1470 treated dead was “Day 37 100% untreated dead 50% AGM-1470 treated dead (50% of treated remained alive past day 55)”.

And the toxicity (B16 Mouse Melanoma; mouse, in vivo)?
The toxicity was “little or no toxicity”.

And the T/C (B16 Mouse Melanoma; time of Rx 2 wk, 30 mg/kg subcutaneously every other day)?
Its T/C is 0.47.

And the T/C (B16 Mouse Melanoma; time of Rx 3 wk, 30 mg/kg subcutaneously every other day)?
Its T/C is 0.20.

What about the “percent of avascular zones” value ([1]; dose 1 »g/10 »l methylcellulose) of the same compound?
Its value is 33.

And the “percent of avascular zones” value ([1]; dose 10 »g/10 »l methylcellulose)?
The value was 62.

What about the “percent of avascular zones” value ([1]; dose 25 »g/10 »l methylcellulose) of the same compound?
Its value is 100.

What about the IC50 [2] of the same compound?
The IC50 was 0.01 ng/mL (≈ 0.0249 nM).

What about the Inhibition rate ([3]; judged after 7 days) of the same compound?
The Inhibition rate was 6/6*.

And the IC50 ([4]; Bos taurus, Endothelial cell, read-out: Half maximal inhibition of endothelial mitogen-induced migration)?
Its IC50 is ~0.1 ng/mL (≈ 0.249 nM).

What about the “inhibition of cell migration” value ([4]; dose of 100 »g/ml) of the same compound?
The value was “completely inhibited”.

And the “Significant inhibition of migration, doses as low as” value [4]?
Its value is 10 femptograms/ml.

What about the “T/C (%)” value [5] of the same compound?
The value was 14%.

With `CO[C@@H]1[C@H](OC(=O)NC(=O)CCl)CC[C@]2(CO2)[C@H]1[C@@]1(C)O[C@@H]1CCC(C)C` [Example 51, O-Chloroacetylcarbamoyldihydrofumagillol] as the compound, how does the IC50 [2] read?
Its IC50 is 0.14 ng/mL (≈ 0.347 nM).

And the Inhibition rate ([3]; judged after 10 days)?
The Inhibition rate was 7/14.

And the “T/C (%)” value [5]?
The value was 22%.

`C=CC(=O)NC(=O)O[C@@H]1CC[C@]2(CO2)[C@@H]([C@@]2(C)O[C@@H]2CC=C(C)C)[C@@H]1OC` [Example 58, O-Acryloylcarbamoylfumagillol] was tested. Which Inhibition rate ([3]; judged after 10 days) did it give?
The Inhibition rate was 6/6.

With `CO[C@@H]1[C@H](OC(=O)NC(=O)CSc2nc3ccccc3o2)CC[C@]2(CO2)[C@H]1[C@@]1(C)O[C@@H]1CC=C(C)C` [Example 60, O-[(2-Benzoxazolyl)thioacetylcarbamoyl]fumagillol] as the compound, how does the Inhibition rate ([3]; judged after 10 days) read?
Its Inhibition rate is 4/6.

With `CO[C@@H]1[C@H](OC(=O)NC(=O)CSc2nc3ccccc3[nH]2)CC[C@]2(CO2)[C@H]1[C@@]1(C)O[C@@H]1CC=C(C)C` [Example 61, O-[(2-Benzoimidazolyl)thioacetylcarbamoyl]fumagillol] as the compound, how does the Inhibition rate ([3]; judged after 10 days) read?
Its Inhibition rate is 7/7.

Which Inhibition rate ([3]; judged after 10 days) does the source give for `CO[C@@H]1[C@H](OC(=O)NC(=O)CSc2cccc3cccnc23)CC[C@]2(CO2)[C@H]1[C@@]1(C)O[C@@H]1CC=C(C)C` [Example 62, O-[(8-Quinolyl)thioacetylcarbamoyl]fumagillol] here?
Its Inhibition rate is 7/7.

With `CO[C@@H]1[C@H](OC(=O)NC(=O)CSc2ccccn2)CC[C@]2(CO2)[C@H]1[C@@]1(C)O[C@@H]1CC=C(C)C` [Example 63, O-[(2-Pyridyl)thioacetylcarbamoyl]fumagillol] as the compound, how does the Inhibition rate ([3]; judged after 10 days) read?
Its Inhibition rate is 6/6.

`CO[C@@H]1[C@H](OC(=O)NC(=O)CSc2ccncc2)CC[C@]2(CO2)[C@H]1[C@@]1(C)O[C@@H]1CC=C(C)C` [Example 64, O-[(4-Pyridyl)thioacetylcarbamoyl]fumagillol] was tested. Which Inhibition rate ([3]; judged after 10 days) did it give?
The Inhibition rate was 5/5.

`CO[C@@H]1[C@H](OC(=O)NC(=O)CSC)CC[C@]2(CO2)[C@H]1[C@@]1(C)O[C@@H]1CC=C(C)C` [Example 65, O-(Methylthioacetylcarbamoyl)fumagillol] was tested. Which Inhibition rate ([3]; judged after 10 days) did it give?
The Inhibition rate was 8/8.

With `COC1C(OC(=O)NC(=O)CSc2cnn[nH]2)CCC2(CO2)C1C1(C)OC1CC=C(C)C` (stereo not drawn) [Example 67, O-[(1,2,3-Triazol-5-yl)thioacetylcarbamoyl]fumagillol] as the compound, how does the Inhibition rate ([3]; judged after 10 days) read?
The Inhibition rate was 5/5.

How did the Inhibition rate ([3]; judged after 10 days) turn out when `COC1C(OC(=O)NC(=O)CSc2cc[n+](C)cc2)CCC2(CO2)C1C1(C)OC1CC=C(C)C` (stereo not drawn) [Example 69, O-[(N-Methylpyridin-4-ylium)thioacetylcarbamoyl]fumagillol iodide] was run?
The Inhibition rate was 6/6.

`CCOC(=O)NC(=O)OC1CCC2(CO2)C(C2(C)OC2CC=C(C)C)C1OC` (stereo not drawn) [Example 70, O-[N-(Ethoxycarbonyl)carbamoyl]fumagillol] was tested. Which Inhibition rate ([3]; judged after 10 days) did it give?
The Inhibition rate was 5/5.

Which Inhibition rate ([3]; judged after 10 days) does the source give for `COC1C(OC(=O)NC(=O)NC(=O)c2ccccc2)CCC2(CO2)C1C1(C)OC1CC=C(C)C` (stereo not drawn) [Example 75, O-(N'-Benzoylallophanoyl)fumagillol] here?
The Inhibition rate was 8/8.

What does the source list for “O-Chloroacetylcarbamoyl-6'b-hydroxyfumagillol [Example 76]”?
(IC₅₀) [2]: 0.12 ng/mL; T/C (%) [5]: 29%
